Results as given in ChEMBL document CHEMBL1141555, “Synthesis and biological activity of piperazine and diazepane amides that are histamine H3 antagonists and serotonin reuptake inhibitors” (Bioorg Med Chem Lett, 2008).

Assays:
Type in all cases: ADME, organism-based
[1] = Drug level in rat brain at 10 mg/kg, po; parameters: dose 10 mg/kg, route oral
[2] = Drug level in rat plasma at 10 mg/kg, po; parameters: dose 10 mg/kg, route oral
[3] = Half life in iv dosed rat; conditions: in vivo
[4] = Bioavailability in rat; conditions: in vivo
[5] = Volume of distribution at steady state in rat; conditions: in vivo, read-out: Vdss
[6] = Clearance in rat; conditions: in vivo

## CNCc1cc(C(=O)N2CCN(C3CC3)CC2)ccc1Oc1ccc(Cl)c(Cl)c1
[1]
  Cmax: > 1000 nM
[2]
  Cmax: > 1000 nM
[3]
  half-life: 16.1 h
[4]
  bioavailability: 93%
[5]
  Vd: 13 L/kg
[6]
  clearance: 10.2 mL/min/kg
